According to BindingDB's records for doi:10.1016/j.bmc.2007.07.054 (Yeungnam University, 2007):

Key:
[1] = biological target: T1, Group 10 secretory phospholipase A2 (Homo sapiens, UniProt O15496); assay: Inhibition of human cloned sPLA2-10 expressed in HEK293 cells
T1 sequence (O15496 whole entry): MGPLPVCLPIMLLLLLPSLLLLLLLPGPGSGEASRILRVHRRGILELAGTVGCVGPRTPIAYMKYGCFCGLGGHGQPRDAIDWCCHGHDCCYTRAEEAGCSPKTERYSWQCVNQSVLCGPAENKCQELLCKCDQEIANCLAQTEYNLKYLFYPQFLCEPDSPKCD

Phospholipase A2 = Phospholipase A2 (Rattus norvegicus, UniProt P04055); assay: Inhibition of rat cloned sPLA2-1B expressed in HEK293 cells
Phospholipase A2, sequence (P04055 whole entry): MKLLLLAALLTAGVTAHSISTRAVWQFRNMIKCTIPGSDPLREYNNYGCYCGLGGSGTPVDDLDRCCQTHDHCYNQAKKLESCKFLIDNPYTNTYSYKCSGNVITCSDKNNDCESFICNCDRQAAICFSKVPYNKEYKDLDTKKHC

[2] = biological target: T2, Cytosolic phospholipase A2 (Homo sapiens, UniProt P47712); assay: Inhibition of human cloned cPLA2 expressed in HEK293 cells
T2 sequence (P47712 whole entry): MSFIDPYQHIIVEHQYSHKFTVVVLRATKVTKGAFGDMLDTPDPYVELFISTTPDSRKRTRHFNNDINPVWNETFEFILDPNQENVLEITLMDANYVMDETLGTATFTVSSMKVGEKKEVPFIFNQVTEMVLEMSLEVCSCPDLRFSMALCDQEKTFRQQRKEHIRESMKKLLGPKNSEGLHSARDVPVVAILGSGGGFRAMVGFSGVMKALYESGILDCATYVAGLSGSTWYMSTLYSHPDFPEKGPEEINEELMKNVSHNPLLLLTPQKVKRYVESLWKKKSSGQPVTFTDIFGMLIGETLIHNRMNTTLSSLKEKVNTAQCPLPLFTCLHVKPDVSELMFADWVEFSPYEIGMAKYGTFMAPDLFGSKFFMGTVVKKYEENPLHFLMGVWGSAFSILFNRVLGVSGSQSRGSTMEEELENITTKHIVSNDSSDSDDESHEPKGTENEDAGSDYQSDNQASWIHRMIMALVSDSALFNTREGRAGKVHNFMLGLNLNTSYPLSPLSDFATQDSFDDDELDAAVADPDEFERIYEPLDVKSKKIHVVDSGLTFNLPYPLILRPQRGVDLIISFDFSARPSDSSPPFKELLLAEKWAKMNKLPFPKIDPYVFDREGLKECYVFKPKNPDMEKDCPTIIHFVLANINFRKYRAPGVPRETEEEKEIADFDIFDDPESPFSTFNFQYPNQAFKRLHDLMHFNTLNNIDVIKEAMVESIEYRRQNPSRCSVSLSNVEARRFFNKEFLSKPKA

Measured: IC50

O=c1cc(O)cc2oc(-c3ccc(O)c(-c4c(O)cc(O)c5c(=O)cc(-c6ccc(O)cc6)oc45)c3)cc(O)c1-2
> 100 µM: all assays above

O=c1cc(O)cc2oc(-c3ccc(Oc4cc(-c5cc(O)c6c(=O)cc(O)cc-6o5)ccc4O)cc3)cc(O)c1-2
> 100 µM: all assays above
